Experiments:
[1] = Safety by body weight change and animal deaths in the MIAPaCa-2 xenograft study; type: in vivo; conditions: for Weight at the Initiation of Administration: baseline
Protocol: (§1) Experimental operation: BALB/c nude mice, female, 6- to 8-weeks old, weighing about 17.6 g to 21.1 g. Each mouse was subcutaneously inoculated with 5×10^6 MIAPaCa-2 cells (with Matrigel; the volume ratio was 1:1) in the right flank. The administration was initiated when the average tumor volume reached about 100 cubic millimeters. The test compounds were orally administered daily by intragastric injection (6 mice in each group) for a total of 16 or 23 days. Tumor volumes were measured three times a week. The volume was measured in cubic millimeters and calculated by the following formula: tumor volume (mm^3)=½×(a×b^2) (where a represented the long diameter and b represented the short diameter). The anti-tumor efficacy of the compound was evaluated by TGI (%).The calculation formula was as follows: TGI %=(1−T/C)×100% (T and C were the relative tumor volumes (RTV) of a mouse in the treatment group and a mouse in the control group at a specific time point), respectively. Safety was evaluated according to the changes of the body weight of the animals and animal deaths.

[2] = test system: A549 human non-small cell lung cancer cells with high expression of KRAS G12S; experiment: Cell Titer-Glo cell viability, A549 cells (72 h); type: cell-based
Source text: (§2) Effect Example 2: Pharmacodynamic Assay 2 (Determination of the efficacy of the compounds of the present disclosure on HCT116 human colon cancer cells with high expression of KRAS G13D and A549 human non-small cell lung cancer cells with high expression of KRAS G12S)
(§3) The following method was used to determine the effects of the compounds of the present disclosure on tumor cell proliferation.
(§4) For KRAS G13D subtype, HCT116 human colon cancer cell was used. For KRAS G12S subtype, A549 human non-small cell lung cancer cell was used. The efficacy of the compounds in inhibiting cancer cell viability was determined. HCT116 cells or A549 cells were cultured in a DMEM medium containing 10% fetal bovine serum, 100 U penicillin and […] streptomycin. The cells were cultured in an incubator with 5% CO2 at 37° C. Cancer cell viability was evaluated by determining the content of ATP with Cell Titer-Glo® kit (Luminescent Cell Viability Assay kit, please refer to the manufacturer's instructions for use) and evaluating the inhibition of cell growth.
(§5) The experimental method was proceeded in accordance with the steps in the instructions for the kit, and was described briefly as follows. The test compounds were first dissolved in DMSO to prepare stock solutions, and then the stock solutions were subjected to gradient dilution with the culture media of the corresponding cells, thereby preparing test samples. The final concentrations of the compounds were in the range of 30 μM to 0.01 nM. Tumor cells in logarithmic growth phase were seeded into a 96-well cell culture plate at an appropriate density. After the cell culture plate was left overnight in an incubator with 5% CO2 at 37° C., the test compound samples were added thereto and then the cells were further cultured for 72 hours. After the incubation was complete, an appropriate volume of Cell Titer-Glo® reagent was added into each well, and the cells were incubated at 37° C. for 1 to 4 hours. Then, the […] was read on a microplate reader. The percentage inhibition rates of the compounds at each concentration point were calculated by comparing the absorbance values of the sample wells with that of the control group (0.3% DMSO), and then non-linear regression analysis of the concentration of the compound vs inhibition rate was performed by using GraphPad Prism 5 software, thereby obtaining IC50 values indicating the inhibitory effects of the compounds on cell proliferation.

[3] = Pharmacokinetic experiment in male CD-1 mice (IV and PO); type: in vivo
Protocol: Effect Example 3: Pharmacokinetic Experiment
(1) Compound I-2-2 of the present disclosure prepared in the above Example was used to be formulated into a clear solution (0.3 mg/mL) (2% DMSO+30% PEG 300+2% Tween 80+66% H2O) as a drug for oral administration; and was used to be formulated into a clear solution (0.2 mg/mL) (2% DMSO+30% PEG 300+2% Tween 80+66% H2O) as a drug for intravenous administration.
(2) Male CD-1 mice (three mice in each group, weighing 27 g to 28 g) were provided by Shanghai Slack Laboratory Animal Co., Ltd. The test mice were given an environmental accommodation period of 2 to 4 days before the experiment. The mice were fasted for 8 to 12 hours before administration, and they were provided access to water (2 hours after administration) and food (4 hours after administration).
(3) 12 hours after the mice were fasted but had free access to water, blank plasma at time 0 was taken.
(4) The mice in step 1) were taken; and they were orally (PO) administered 3 mg/kg of the compound to be tested, or intravenously (IV) administered 1 mg/kg of the compound to be tested.
(5) At 5 min, 15 min, 30 min, 1 h, 2 h, 4 h, 8 h, 10 h, and 24 h after oral administration, blood was successively taken from the fundus oculi venous plexus and placed in EP tubes with heparin. After centrifugation at 8000 rpm/min for 5 min, the plasma in upper layer was collected and frozen at −20° C., waiting for LC-MS/MS analysis.
(6) WinNonlin software was used to calculate the pharmacokinetic parameters based on the blood concentration-time data obtained in […]).

[4] = test system: HCT116 human colon cancer cells with high expression of KRAS G13D; experiment: Cell Titer-Glo cell viability, HCT116 cells (72 h); type: cell-based; conditions: HCT-116
Source text: as §2, §3, §4, §5

[5] = test system: MIAPaCa-2 human-derived pancreatic cancer cells; experiment: In-vivo pharmacodynamic experiment, MIAPaCa-2 subcutaneous xenograft in BALB/c nude mice; conditions: for TGI (%) / TIC / Tumor volumes (mm^3) (Day 23): Day 23; for Tumor volumes (mm^3) (Day 0): baseline
Source text: Effect Example 4: In-Vivo Pharmacodynamic Experiment
Purpose of the experiment: To evaluate the anti-tumor effect of the test drug in female BALB/c nude mice model subcutaneously xenografted with MIAPaCa-2 human-derived pancreatic cancer cells.
as §1

[6] = 30 mg/kg (Day 0 to Day 9) + 15 mg/kg (Day 10 to Day 16)
[7] = 100 mg/kg (Day 0 to Day 9) + 50 mg/kg (Day 10 to Day 16) + 100 mg (Day 17 to Day 23)
[8] = oral daily 30 mg/kg (Day 0 to Day 9) + 15 mg/kg (Day 10 to Day 16)
[9] = oral daily 100 mg/kg (Day 0 to Day 9) + 50 mg/kg (Day 10 to Day 16) + 100 mg (Day 17 to Day 23)

## C=CC(=O)N1CCN(c2c(C#N)c(=O)n(-c3ccccc3C(C)C)c3cc(-c4c(C)ccc5[nH]ncc45)c(Cl)cc23)[C@@H](C)C1 (single isomer, unassigned) [Compound I-2-2]
[1]; [6]
  Weight Change Rate (%): +7.53%
  Weight on Day 23: 21.3 g
  Weight at the Initiation of Administration: 19.8 g
[1]; [7]
  Weight Change Rate (%): +12.32%
  Weight on Day 23: 22.4 g
  Weight at the Initiation of Administration: 20.0 g
[2]
  IC50: > 3000 nM
[3]; PO 3 mg/kg
  F: 18.9%
[3]; mouse, plasma, IV 1 mg/kg
  AUC: 867 ng·h/mL
  Vd: 1.17 L/kg
  clearance: 16.7 mL/min/kg
  half-life: 43.1 min
[3]; mouse, plasma, PO 3 mg/kg
  AUC: 479 ng·h/mL
  Cmax: 220 ng/mL
  Tmax: 60 min
[4]
  IC50: > 3000 nM
[5]; [8]
  TGI (%): 36.25%
  TIC: 63.75
  Tumor volumes (mm^3) (Day 23): 438.75 mm^3
  Tumor volumes (mm^3) (Day 0): 100.25 mm^3
[5]; [9]
  TGI (%): 85.02%
  TIC: 14.98
  Tumor volumes (mm^3) (Day 23): 179.60 mm^3
  Tumor volumes (mm^3) (Day 0): 100.06 mm^3
